{
  "source": "patent EP0117176A1",
  "about": "“Zinc salt of L-thiazolidine-4-carboxylic acid, its preparation, compositions containing it and its use” (PIERRE FABRE S.A., priority 1983, dated 1984)",
  "key": {"[1]": {"assay": "Local tolerance on shaved flank", "assay_type": "in vivo", "details": "5 cobayes albinos adultes; application three times a week for two weeks on shaved flank", "excerpt": "La tolérance a été recherchée sur 5 cobayes albinos adultes."}, "[2]": {"assay": "Solubility", "assay_type": "physicochemical", "details": "dans les solvants organiques", "excerpt": "Solubilité : Soluble dans l'eau à 1 %. Insoluble dans les solvants organiques."}, "[3]": {"tested_on": "lipase", "assay": "Antilipase power: inhibition of hydrolysis of glycerol tributyrate by lipase", "assay_type": "biochemical", "details": "substrate tributyrate de glycérol", "procedure": "Le milieu d'incubation témoin ne contient que des acides gras estérifiés (tributyrate de glycérol).\nL'ajout de lipase dans le milieu entraîne l'hydrolyse du tributyrate de glycérol.\nL'incorporation de L-thiazolidine-4 carboxylate de zinc avant l'adjonction de lipase empêche la libération d'acide butyrique. Les résultats obtenus sont regroupés dans le tableau suivant : […]"}, "[4]": {"assay": "Antioxidant power: peroxide index during oxidation of linoleic acid (method of CARNAT and POURRAT, linoleic acid instead of linseed oil)", "procedure": "La mesure du pouvoir antioxydant est effectuée selon la méthode décrite par CARNAT et POURRAT (Ann. Pharm. Fr. 1979, 37, n° 3-4, p. 119-124) en remplaçant l'huile de lin par de l'acide linoléique. L'oxydation de l'acide linoléique est suivie chaque jour par une mesure de l'indice de péroxyde Ip.\nDans un flacon contenant l'acide linoléique, on ajoute 15 ml de CHCl3, 20 ml d'acide acétique RP puis 1 ml de solution aqueuse saturée de IK. On agite une minute et on laisse reposer le flacon 5 minutes à l'obscurité.\nA près voir ajouté 100 ml d'eau, on dose l'iode libéré par du thiosulfate de sodium 0,01 N."}},
  "data": [
    {"substance": "L-thiazolidine-4 carboxylate de zinc", "values": [
      {"measurement": "Tolérance locale", "setting": "[1]", "result": "aucune réaction"},
      {"measurement": "Solubilité", "setting": "[2]", "result": "Insoluble"},
      {"measurement": "% d'inhibition mesuré", "setting": "[3]; 5 mg", "result": 52, "unit": "%"},
      {"measurement": "% d'inhibition mesuré", "setting": "[3]; 10 mg", "result": "71,5%"},
      {"measurement": "Indice de péroxydes", "setting": "[4]; Temps 0 h", "result": "0,91"},
      {"measurement": "Indice de péroxydes", "setting": "[4]; Temps 24 h", "result": "12,7"},
      {"measurement": "Indice de péroxydes", "setting": "[4]; Temps 48 h", "result": 25.2}
    ]}
  ]
}
